Results reported in US8481542B2, “Pyridazinyl derivatives as smo inhibitors” (Novartis AG, priority 2008, dated 2013).
Converted amounts (≈) assume the structure as drawn. Like-named read-outs stand apart in the source and are kept apart here.

What was measured:
[1] = test system: Gli-luciferase activity in TMHh12 cells; assay: Reporter gene assay (RGA) in TMHh12 cells, antagonism of Gli-luciferase activity in presence of Smo agonist; format: cell-based
Procedure: Activity of the compounds was evaluated using a reporter gene assay (RGA) in TMHh12 cells.

[2] = target: mouse Smoothened receptor (Mus musculus, UniProt P56726); assay: Smo binding assay, displacement of radio-labeled smoothened agonist, filter binding format (mouse); settings: read-out: Mouse Smo bdg., IC50
Excerpt: (§1) A Smo binding assay was developed using radio-labeled smoothened agonist for compound competition. Table 10 lists the IC50 for displacement of a small molecule agonist of Smoothened determined in a filter binding format for the mouse and human Smoothened receptor.

[3] = target: human Smoothened receptor (Homo sapiens, UniProt Q99835); assay: Smo binding assay, displacement of radio-labeled smoothened agonist, filter binding format (human); settings: read-out: Human Smo bdg., IC50
Excerpt: as §1

[4] = equilibrium solubility at pH 6.8; format: physicochemical; settings: aqueous buffer, thermodynamic from solid, examples of the present invention
[5] = read-out: RGA (1 nM Smo agonist) IC50, 1 nM Smo agonist, Table 10, values as ranges
[6] = read-out: RGA (25 nM Smo agonist) IC50, 25 nM Smo agonist, Table 10, values as ranges
[7] = TMHh12, read-out: RGA (1 nM Smo agonist) IC50, 1 nM Smo agonist, examples of the present invention, exact values
[8] = TMHh12, read-out: RGA (25 nM Smo agonist) IC50, 25 nM Smo agonist, examples of the present invention, exact values
[9] = examples of the present invention, exact values

Chain of mouse Smoothened receptor (P56726 33-793): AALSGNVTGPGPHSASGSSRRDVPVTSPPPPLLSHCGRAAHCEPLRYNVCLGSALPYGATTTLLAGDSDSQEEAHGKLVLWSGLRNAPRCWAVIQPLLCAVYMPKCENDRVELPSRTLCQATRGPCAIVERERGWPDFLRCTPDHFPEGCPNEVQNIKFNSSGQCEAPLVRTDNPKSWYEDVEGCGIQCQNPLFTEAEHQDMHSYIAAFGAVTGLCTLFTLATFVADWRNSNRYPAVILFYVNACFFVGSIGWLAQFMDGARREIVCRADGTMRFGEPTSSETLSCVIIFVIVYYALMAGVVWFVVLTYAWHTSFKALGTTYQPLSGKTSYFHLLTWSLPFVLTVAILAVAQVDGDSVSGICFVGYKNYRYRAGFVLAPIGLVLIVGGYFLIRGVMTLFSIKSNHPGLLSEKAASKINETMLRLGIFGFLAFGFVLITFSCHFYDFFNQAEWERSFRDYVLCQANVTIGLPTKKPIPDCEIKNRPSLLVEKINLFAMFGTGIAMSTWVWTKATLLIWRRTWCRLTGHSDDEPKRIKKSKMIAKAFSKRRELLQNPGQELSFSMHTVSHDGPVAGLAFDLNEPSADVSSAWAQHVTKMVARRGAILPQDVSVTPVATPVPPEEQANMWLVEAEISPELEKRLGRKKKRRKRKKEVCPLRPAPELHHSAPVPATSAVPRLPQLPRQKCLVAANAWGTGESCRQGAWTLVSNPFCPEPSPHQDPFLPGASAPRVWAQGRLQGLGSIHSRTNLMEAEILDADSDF
Chain of human Smoothened receptor (Q99835 28-787): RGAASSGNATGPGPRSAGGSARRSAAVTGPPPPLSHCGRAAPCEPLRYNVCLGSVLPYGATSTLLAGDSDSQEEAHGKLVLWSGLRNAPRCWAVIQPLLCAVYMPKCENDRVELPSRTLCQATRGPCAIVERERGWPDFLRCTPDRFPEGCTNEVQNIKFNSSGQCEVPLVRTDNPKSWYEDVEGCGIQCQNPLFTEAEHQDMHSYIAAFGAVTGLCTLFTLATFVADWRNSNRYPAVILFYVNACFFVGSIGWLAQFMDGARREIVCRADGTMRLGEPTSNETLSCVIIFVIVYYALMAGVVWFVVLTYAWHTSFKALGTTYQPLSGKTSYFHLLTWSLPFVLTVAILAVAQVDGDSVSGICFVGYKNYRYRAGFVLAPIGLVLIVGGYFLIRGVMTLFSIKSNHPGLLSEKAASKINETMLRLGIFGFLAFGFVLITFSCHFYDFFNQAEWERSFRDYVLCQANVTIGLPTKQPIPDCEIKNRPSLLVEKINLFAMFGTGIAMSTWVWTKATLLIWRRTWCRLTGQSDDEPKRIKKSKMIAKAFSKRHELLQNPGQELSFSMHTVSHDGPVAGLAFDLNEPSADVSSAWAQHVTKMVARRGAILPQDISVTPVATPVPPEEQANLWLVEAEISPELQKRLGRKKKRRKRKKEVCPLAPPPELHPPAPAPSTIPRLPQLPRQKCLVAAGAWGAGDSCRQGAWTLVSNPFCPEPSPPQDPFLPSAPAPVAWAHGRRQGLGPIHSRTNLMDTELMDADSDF

IC50 [1, 5] [nM]	IC50 [1, 6] [nM]	IC50 ([2]; Table 10, values as ranges) [nM]	IC50 ([3]; Table 10, values as ranges) [nM]	IC50 [1, 7] [nM]	IC50 [1, 8] [nM]	IC50 [2, 9] [nM]	IC50 [3, 9] [nM]	solubility thermodynamic [4] [µM]	Molecule
1 to 10	1 to 25	1 to 10	1 to 10	–	–	–	–	–	4,5-Dimethyl-3-(1-methyl-1H-tetrazol-5-ylmethyl)-6-[4-(5-trifluoromethyl-pyridin-2-yl)-piperazin-1-yl]-pyridazine & 4,5-Dimethyl-3-(2H-methyl-2H-tetrazol-5-ylmethyl)-6-[4-(5-trifluoromethyl-pyridin-2-yl)-piperazin-1-yl]-pyridazine [160/161]
–	–	–	–	2	23	8	4	–	Cc1c(Oc2ccccc2)nnc(N2CCN(c3cnc(C(C)(C)O)cn3)[C@H](C)C2)c1C [Example 2, 2-[(R)-4-(4,5-Dimethyl-6-phenoxy-pyridazin-3-yl)-2-methyl-3,4,5,6-tetra-hydro-2H-[1,2′]bipyrazinyl-5′-yl]-propan-2-ol]
< 0.1	0.1 to 1	< 0.1	< 0.1	–	–	–	–	–	COC(=O)c1cnc(N2CCN(c3nnc(-c4ccc(F)c(Cl)c4)c(C)c3C)CC2)nc1C(F)(F)F [Example 20]
–	–	–	–	2	25	8	5	425 (≈ 191 µg/mL)	Cc1c(C(O)c2ccccc2)nnc(N2CCN(c3cnc(C(C)(C)O)cn3)[C@H](C)C2)c1C (stereo partly shown) [Example 48]
–	–	–	–	6	114	32	29	> 1000	Cc1c(Cc2ccncc2)nnc(N2CCN(c3cnc(C(C)(C)O)cn3)[C@H](C)C2)c1C [Example 50, 2-[(R)-4-(4,5-Dimethyl-6-pyridin-4-ylmethyl-pyridazin-3-yl)-2-methyl-3,4,5,6-tetrahydro-2H-[1,2′]bipyrazinyl-5′-yl]-propan-2-ol]
–	–	–	–	7	83	30	22	619 (≈ 268 µg/mL)	Cc1c(Cc2ccccn2)nnc(N2CCN(c3cnc(C(C)(C)O)cn3)[C@H](C)C2)c1C [Example 54, 2-[(R)-4-(4,5-Dimethyl-6-pyridin-2-ylmethyl-pyridazin-3-yl)-2-methyl-3,4,5,6-tetrahydro-2H-[1,2′]bipyrazinyl-5′-yl]-propan-2-ol]
1 to 10	1 to 25	1 to 25	1 to 10	–	–	–	–	–	Cc1c(Cc2ccccc2)nnc(N2CCC(C)(c3nc4cnccc4[nH]3)CC2)c1C [Example 59, 2-[1-(6-Benzyl-4,5-dimethyl-pyridazin-3-yl)-4-methyl-piperidin-4-yl]-1H-imidazo[4,5-c]pyridine]
–	–	–	–	1	14	3	9	44 (≈ 19 µg/mL)	Cc1c(Cc2ccccc2)nnc(N2CCN(c3cnc(C(C)(C)O)cn3)[C@H](C)C2)c1C [Example 88, 2-[(R)-4-(6-Benzyl-4,5-dimethyl-pyridazin-3-yl)-2-methyl-3,4,5,6-tetrahydro-2H-[1,2′]bipyrazinyl-5′-yl]-propan-2-ol]
–	–	–	–	2	60	15	11	11 (≈ 4.6 µg/mL)	Cc1c(Cc2ccccc2)nnc(N2CCN(c3cnc(C(C)(C)O)cn3)CC2)c1C [Example 89]
–	–	–	–	1	34	7	6	18 (≈ 7.79 µg/mL)	Cc1c(Cc2ccccc2)nnc(N2CCN(c3cnc(C(C)(C)O)cn3)[C@@H](C)C2)c1C [Example 90]
–	–	–	–	5	57	8	8	–	CC[C@@H]1CN(c2nnc(Cc3ccccc3)c(C)c2C)CCN1c1cnc(C(C)(C)O)cn1 [Example 91]
–	–	–	–	1	14	3	1	20 (≈ 8.89 µg/mL)	C[C@@H]1CN(c2nnc(Cc3ccccc3)c3c2CCC3)CCN1c1cnc(C(C)(C)O)cn1 [Example 93]
–	–	–	–	8	110	9	8	–	CC(=O)c1cnc(N2CCN(c3nnc(Cc4ccccc4)c(C)c3C)C[C@H]2C)cn1 [Example 95, 1-[(R)-4-(6-Benzyl-4,5-dimethyl-pyridazin-3-yl)-2-methyl-3,4,5,6-tetrahydro-2H-[1,2]bipyrazinyl-5′-yl]-ethanone]
–	–	–	–	6	62	4	3	–	Cc1c(Cc2ccccc2)nnc(N2CCN(c3ncc(C(C)(C)O)c(C(F)(F)F)n3)[C@H](C)C2)c1C [Example 96]
–	–	–	–	3	35	2	2	–	Cc1c(Cc2ccc(F)cc2)nnc(N2CCN(c3ncc(C(C)(C)O)c(C(F)(F)F)n3)[C@H](C)C2)c1C [Example 97]
–	–	–	–	11	69	6	6	–	C[C@@H]1CN(c2nnc(Cc3ccccc3)c3c2CCC3)CCN1c1ncc(C(C)(C)O)c(C(F)(F)F)n1 [Example 98]
–	–	–	–	5	72	3	2	–	C[C@@H]1CN(c2nnc(Cc3ccc(F)cc3)c3c2CCC3)CCN1c1ncc(C(C)(C)O)c(C(F)(F)F)n1 [Example 99]
–	–	–	–	5	70	9	14	–	CC(C)(O)c1ccc(N2CCN(c3nnc(Cc4ccc(F)cc4)c4c3CCCC4)CC2)nc1 [Example 104]
–	–	–	–	3	35	6	7	–	CC(C)(O)c1ccc(N2CCN(c3nnc(Cc4ccc(F)cc4)c4c3CCC4)CC2)nc1 [Example 105]
–	–	–	–	5	76	5	7	–	Cc1c(Cc2ccc(F)cc2)nnc(N2CCN(c3ccc(C(C)(C)O)cn3)CC2)c1C [Example 106]
–	–	–	–	2	23	3	3	–	C[C@@H]1CN(c2nnc(Cc3ccccc3)c3c2CCC3)CCN1c1cc(C(F)(F)F)c(C(C)(C)O)cn1 [Example 107]
–	–	–	–	4	33	–	–	–	CC(=O)c1cnc(N2CCN(c3nnc(Cc4ccccc4)c4c3CCC4)C[C@H]2C)cc1C(F)(F)F [Example 108]
–	–	–	–	3	38	2	2	–	C[C@@H]1CN(c2nnc(Cc3ccc(F)cc3)c3c2CCC3)CCN1c1cc(C(F)(F)F)c(C(C)(C)O)cn1 [Example 109]
–	–	–	–	1	18	2	1	–	CCC(O)(CC)c1cnc(N2CCN(c3nnc(Cc4ccccc4)c(C)c3C)C[C@H]2C)cn1 [Example 111]
–	–	–	–	5	83	19	24	270 (≈ 121 µg/mL)	Cc1c(Cc2ccccc2)nnc(N2CCN(c3cnc(C(C)(O)CO)cn3)[C@H](C)C2)c1C (stereo partly drawn) [Example 144, 2-[(R)-4-(6-Benzyl-4,5-dimethyl-pyridazin-3-yl)-2-methyl-3,4,5,6-tetrahydro-2H-[1,2]bipyrazinyl-5′-yl]-propane-1,2-diol]
